From patent publication US20130287823A1, “PATCH” (priority 2010, published 2013)
Structures can show the parent of a compound that is named as a salt. Where two headings read alike, the source gives them in different places.

Experiments:
[1] = Storage stability of midodrine in compounds (60° C., 20 days; discoloration and remaining midodrine by HPLC); format: physicochemical; conditions: 3 parts midodrine + 100 parts compound, sealed; for STORAGE STABILITY OF MIDODRINE: RATIO OF REMAINING MIDODRINE (% BY WEIGHT): HPLC
Method: Then the color of the mixture after storage was visually observed. When the color was found unchanged compared with that before the storage, the mixture was evaluated as “excellent.” When discoloration was found, the mixture was evaluated as “bad.”
The weight W5 (g) of non-decomposed midodrine remaining in the mixture after storage was quantified by HPLC, and the ratio (% by weight) of remaining midodrine to the amount W6 (g) of midodrine added was computed using the following formula (1).
Ratio(% by weight)of remaining midodrine=100×(W5/W6) (1)

[2] = Solubility of midodrine at 25° C. in monomers / compounds (saturated solution, HPLC)
Method: One hundred parts by weight of a monomer shown in TABLE 1 and 3 parts by weight of midodrine were sufficiently mixed to prepare a midodrine solution, and the dissolved state of midodrine in the midodrine solution was visually observed. The midodrine solution was stored at a temperature of 25° C. for 7 days, and then the dissolved state of midodrine was again visually observed. The dissolvability of midodrine was evaluated according to the following criteria.
A midodrine solution composed of 50 parts by weight of midodrine and 950 parts by weight of a compound shown in TABLE 2 and used as a solvent was prepared. Then the midodrine solution was maintained at 50° C. for 15 minutes and subjected to ultrasonic shaking in a water bath at 25° C. for 10 minutes. The resultant midodrine solution was transferred to a centrifuge tube and left to stand at 25° C. for 2 hours. Then the midodrine solution was centrifuged at a rotation speed of 3,000 rpm using a centrifuge, and the presence or absence of crystals of midodrine on the bottom of the centrifuge tube was observed. When no crystals of midodrine were deposited, the same procedure was repeated with the midodrine-to-compound weight ratio increased up to 200:800 to thereby prepare a saturated midodrine solution.
A certain amount of the supernatant of the saturated midodrine solution after centrifugation was collected, and the collected supernatant was subjected to HPLC measurement to quantify the weight W7 (g) of midodrine dissolved in the saturated midodrine solution.
(W8: weight (g) of compound used as solvent in saturated midodrine solution)

[3] = Dissolvability of midodrine in monomers (visual observation); format: physicochemical; conditions: 3 parts by weight midodrine in 100 parts by weight of the monomer; observed immediately and after 7 days at 25° C.
Description: High: No deposition of midodrine was found in any of the midodrine solution immediately after preparation and the midodrine solution after storage for 7 days.
Middle: Deposition of midodrine was found in the solution immediately after preparation, but no deposition of midodrine was found in the midodrine solution after storage for 7 days.
Low: Deposition of midodrine was found in the midodrine solution immediately after preparation and also in the midodrine solution after storage for 7 days.

Row | Structure (SMILES) | STORAGE STABILITY OF MIDODRINE: DISCOLORATION TEST ([1]; colour observed visually) | SOLUBILITY OF MIDODRINE [2] [g] | other results
1 | CC(C)CCCCCCCCCCCCCCCO [ISOSTEARYL ALCOHOL] | EXCELLENT | – | –
2 | CCCCCCCCCCCC(=O)OCCCCCC [HEXYL LAURATE] | EXCELLENT | 0.02 | –
3 | CCCCCCCCC(CO)CCCCCC (centres unmarked) [HEXYLDECANOL] | EXCELLENT | – | Value in parentheses after the liquid solubilizing aid (solubility of midodrine in the compound) [2]: HEXYLDECANOL (0.26); STORAGE STABILITY OF MIDODRINE: RATIO OF REMAINING MIDODRINE (% BY WEIGHT) [1]: 90.4 % BY WEIGHT
4 | CCCCCCCC/C=C\CCCCCCCCO [OLEYL ALCOHOL] | BAD | 0.40 | –
5 | C=C(C)C(=O)OCCCCCCCCCCCC [DODECYL METHACRYLATE] | – | 0.02 | DISSOLVABILITY OF MIDODRINE [3]: LOW
6 | CCCCCCCCCCC(CO)CCCCCCCC (centres unmarked) [OCTYLDODECANOL] | EXCELLENT | – | STORAGE STABILITY OF MIDODRINE: RATIO OF REMAINING MIDODRINE (% BY WEIGHT) [1]: 100.0 % BY WEIGHT
7 | CC(=O)OCC(COC(C)=O)OC(C)=O [TRIACETIN] | EXCELLENT | 0.70 | –
8 | NCCO [MONOETHANOLAMINE] | BAD | – | –
9 | CC(C)CCCC(C)CCCC(C)CCCCC(C)CCCC(C)CCCC(C)C (centres unmarked) | EXCELLENT | – | –
10 | CCCCCCCCCCCCCCCC(=O)OC(C)C [ISOPROPYL PALMITATE] | EXCELLENT | – | Value in parentheses after the liquid solubilizing aid (solubility of midodrine in the compound) [2]: ISOPROPYL PALMITATE (0.02)
11 | C=CC(=O)O [ACRYLIC ACID] | – | – | DISSOLVABILITY OF MIDODRINE [3]: HIGH
12 | C=CC(=O)OCC [ETHYL ACRYLATE] | – | 0.25 | DISSOLVABILITY OF MIDODRINE [3]: LOW
13 | CCCCCCCCCCCCCC(=O)OC(C)C [ISOPROPYL MYRISTATE] | EXCELLENT | – | Value in parentheses after the liquid solubilizing aid (solubility of midodrine in the compound) [2]: ISOPROPYL MYRISTATE (0.02)
14 | CC(O)CO (centres unmarked) [PROPYLENE GLYCOL] | EXCELLENT | 15.67 | –
15 | CC(C)CCCCCCCCCCCCCCC(=O)O [ISOSTEARIC ACID] | BAD | – | –
16 | CCCCCCC(O)CO (centres unmarked) [OCTANEDIOL] | BAD | 1.78 | STORAGE STABILITY OF MIDODRINE: RATIO OF REMAINING MIDODRINE (% BY WEIGHT) [1]: 48.0 % BY WEIGHT
17 | CCCCCCCCCCCCO [LAURYL ALCOHOL] | BAD | – | –
18 | C=C(C)C(=O)OCC(CC)CCCC (centres unmarked) [2-ETHYLHEXYL METHACRYLATE] | – | – | DISSOLVABILITY OF MIDODRINE [3]: LOW
19 | OCCCCO [BUTYLENE GLYCOL] | – | 7.72 | STORAGE STABILITY OF MIDODRINE: DIS[…] ([1]; colour observed visually): EXCELLENT
20 | C=C(C)C(=O)OCCCC [BUTYL METHACRYLATE] | – | – | DISSOLVABILITY OF MIDODRINE [3]: LOW; SOLUBILITY OF MIDODRINE ([2]; in the monomer as solvent, 25° C., grams of midodrine per 100 g of solvent): 0.10 g
21 | CCOC(=O)CC(O)(CC(=O)OCC)C(=O)OCC [TRIETHYL CITRATE] | EXCELLENT | – | –
22 | C=CN1CCCC1=O [1-VINYL-2-PYRROLIDONE] | – | >3.0 | DISSOLVABILITY OF MIDODRINE [3]: HIGH
